From patent US6355799B1, “Substituted benzene compounds, process for their preparation, and herbicidal and defoliant compositions containing them” (ISK Americas Incorporated, priority 1997, dated 2002)

Experiments:
Type in all cases: in vivo
[1] = test system: common ragweed (Ambrosia artemisizfolia L., AMBEL); test: Post-emerge test, greenhouse herbicide activity screening; details: rating scale 0-100 (0 no damage, 100 complete death), 14 days after application
In short: (§1)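 Fourteen days after spraying, crop and weed injury was graded visually from 0, no effect, to 100, every plant dead. Test substances were dissolved in acetone and applied at 15–1000 g ai/ha with a flat-fan nozzle. Application was either pre-emergence, one day after sowing, or post-emergence at the 2–3 leaf stage.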

[2] = test system: lambsquarters (Chenopodium album, CHEAL); test: as above; details: rating scale 0-100 (0 no damage, 100 complete death), 14 days after application
In short: as §1

[3] = test system: green foxtail (Setaria viridis, SETVI); test: as above; details: rating scale 0-100 (0 no damage, 100 complete death), 14 days after application
In short: as §1

[4] = test system: barnyardgrass (Echinochloa crus-galli, ECHCG); test: as above; details: rating scale 0-100 (0 no damage, 100 complete death), 14 days after application
In short: as §1

[5] = test system: ivyleaf morningglory (Ipomoea hederacea, IPOHE); test: as above; details: rating scale 0-100 (0 no damage, 100 complete death), 14 days after application
In short: as §1

[6] = test system: velvetleaf (Abutilon theophrasti, ABUTH); test: as above; details: rating scale 0-100 (0 no damage, 100 complete death), 14 days after application
In short: as §1

[7] = test system: johnsongrass (Sorghum halepense, SORHA); test: as above; details: rating scale 0-100 (0 no damage, 100 complete death), 14 days after application
In short: as §1

[8] = test system: redroot pigweed (Amaranthus retroflexus, AMARE); test: as above; details: rating scale 0-100 (0 no damage, 100 complete death), 14 days after application
In short: as §1

[9] = test system: large crabgrass (Digitaria sanguinalis, DIGSA); test: as above; details: rating scale 0-100 (0 no damage, 100 complete death), 14 days after application
In short: as §1

[10] = test system: sicklepod (Cassia obtusifolia, CASOB); test: as above; details: rating scale 0-100 (0 no damage, 100 complete death), 14 days after application
In short: as §1

[11] = test system: lambsquarters (Chenopodium album, CHEAL); test: Pre-emerge test, greenhouse herbicide activity screening; details: for Pre-emerge herbicidal activity, phytotoxicity rating CHEAL: rating scale 0-100, 14 days after application; for phytotoxicity rating CHEAL: pre-emerge, 14 days after application, rating scale 0-100
In short: (§2)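 Herbicidal damage is scored 0 (none) to 100 (complete plant death) two weeks after a simulated field spray. Rates span 15–1000 g ai/ha, delivered in acetone at 187 l/ha. For post-emergence treatments, plants have 2–3 leaves and the spray carries 0.25% v/v non-ionic surfactant.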

[12] = test system: green foxtail (Setaria viridis, SETVI); test: as above; details: for Pre-emerge herbicidal activity, phytotoxicity rating SETVI: rating scale 0-100, 14 days after application; for phytotoxicity rating SETVI: pre-emerge, 14 days after application, rating scale 0-100
In short: as §2

[13] = test system: barnyardgrass (Echinochloa crus-galli, ECHCG); test: as above; details: for Pre-emerge herbicidal activity, phytotoxicity rating ECHCG: rating scale 0-100, 14 days after application; for phytotoxicity rating ECHCG: pre-emerge, 14 days after application, rating scale 0-100
In short: as §2

[14] = test system: ivyleaf morningglory (Ipomoea hederacea, IPOHE); test: as above; details: for Pre-emerge herbicidal activity, phytotoxicity rating IPOHE: rating scale 0-100, 14 days after application; for phytotoxicity rating IPOHE: pre-emerge, 14 days after application, rating scale 0-100
In short: as §2

[15] = test system: velvetleaf (Abutilon theophrasti, ABUTH); test: as above; details: for Pre-emerge herbicidal activity, phytotoxicity rating ABUTH: rating scale 0-100, 14 days after application; for phytotoxicity rating ABUTH: pre-emerge, 14 days after application, rating scale 0-100
In short: as §2

[16] = test system: johnsongrass (Sorghum halepense, SORHA); test: as above; details: for Pre-emerge herbicidal activity, phytotoxicity rating SORHA: rating scale 0-100, 14 days after application; for phytotoxicity rating SORHA: pre-emerge, 14 days after application, rating scale 0-100
In short: as §2

[17] = test system: large crabgrass (Digitaria sanguinalis, DIGSA); test: as above; details: for Pre-emerge herbicidal activity, phytotoxicity rating DIGSA: rating scale 0-100, 14 days after application; for phytotoxicity rating DIGSA: pre-emerge, 14 days after application, rating scale 0-100
In short: as §2

[18] = test system: sicklepod (Cassia obtusifolia, CASOB); test: as above; details: for Pre-emerge herbicidal activity, phytotoxicity rating CASOB: rating scale 0-100, 14 days after application; for phytotoxicity rating CASOB: pre-emerge, 14 days after application, rating scale 0-100
In short: as §2

[19] = test system: redroot pigweed (Amaranthus retroflexus, AMARE); test: as above; details: for Pre-emerge herbicidal activity, phytotoxicity rating AMARE: rating scale 0-100, 14 days after application; for phytotoxicity rating AMARE: pre-emerge, 14 days after application, rating scale 0-100
In short: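 Sandy loam pots; pre-emerge: sown 1 d pre-spray, surface-watered after, then bottom-watered. Post-emerge: sown 8–21 d before, 2–3 leaf stage, + 0.25% v/v NIS, bottom-watered. Acetone, 187 l/ha track spray, 15–1000 g ai/ha. 0–100 injury score, day 14.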

[20] = test system: field corn (Zea mays L., var. Dekalb 535, CORN); test: Pre-emerge test, crop safety; details: for Pre-emerge phytotoxicity rating, crop damage CORN: rating scale 0-100, 14 days after application; for phytotoxicity rating CORN: pre-emerge, 14 days after application, rating scale 0-100
In short: as §1

[21] = test system: upland rice (Oryza sp., var. Tebonnet, RICE); test: Pre-emerge test, crop safety; details: for Pre-emerge phytotoxicity rating, crop damage RICE: rating scale 0-100, 14 days after application; for phytotoxicity rating RICE: pre-emerge, 14 days after application, rating scale 0-100
In short: as §1

[22] = test system: field corn (Zea mays L., var. Dekalb 535, CORN); test: Post-emerge test, crop safety; details: rating scale 0-100 (0 no damage, 100 complete death), 14 days after application
In short: as §2

[23] = test system: upland rice (Oryza sp., var. Tebonnet, RICE); test: Post-emerge test, crop safety; details: rating scale 0-100 (0 no damage, 100 complete death), 14 days after application
In short: as §2

COCCOC(=O)C(C)(Cl)Cc1c(OC)c(Cl)cc(F)c1-n1c(=O)cc(C(F)(F)F)n(C)c1=O (centres unmarked) [14-47]
0: Post-emerge Herbicidal Activity, phytotoxicity rating CASOB ([10]; Rate 63 g ai/ha) | Pre-emerge herbicidal activity, phytotoxicity rating SETVI ([12]; 63 g ai/ha) | Pre-emerge herbicidal activity, phytotoxicity rating ECHCG ([13]; 63 g ai/ha) | Pre-emerge herbicidal activity, phytotoxicity rating IPOHE ([14]; 63 g ai/ha) | Pre-emerge herbicidal activity, phytotoxicity rating IPOHE ([14]; 250 g ai/ha) | Pre-emerge herbicidal activity, phytotoxicity rating SORHA ([16]; 63 g ai/ha) | Pre-emerge herbicidal activity, phytotoxicity rating CASOB ([18]; 63 g ai/ha) | Pre-emerge herbicidal activity, phytotoxicity rating CASOB ([18]; 250 g ai/ha) | Pre-emerge phytotoxicity rating, crop damage CORN ([20]; 63 g ai/ha) | Pre-emerge phytotoxicity rating, crop damage CORN ([20]; 250 g ai/ha) | Pre-emerge phytotoxicity rating, crop damage RICE ([21]; 63 g ai/ha)
95: Post-emerge Herbicidal Activity, phytotoxicity rating DIGSA ([9]; Rate 63 g ai/ha) | Pre-emerge herbicidal activity, phytotoxicity rating ECHCG ([13]; 250 g ai/ha)
30: Pre-emerge herbicidal activity, phytotoxicity rating DIGSA ([17]; 63 g ai/ha)
99: Pre-emerge herbicidal activity, phytotoxicity rating SETVI ([12]; 250 g ai/ha)
40: Post-emerge phytotoxicity rating CORN (crop damage) ([22]; Rate 63 g ai/ha)
90: Post-emerge Herbicidal Activity, phytotoxicity rating SETVI ([3]; Rate 63 g ai/ha)
100: Post-emerge Herbicidal Activity, phytotoxicity rating AMBEL ([1]; Rate 63 g ai/ha) | Post-emerge Herbicidal Activity, phytotoxicity rating AMBEL ([1]; Rate 250 g ai/ha) | Post-emerge Herbicidal Activity, phytotoxicity rating CHEAL ([2]; Rate 63 g ai/ha) | Post-emerge Herbicidal Activity, phytotoxicity rating CHEAL ([2]; Rate 250 g ai/ha) | Post-emerge Herbicidal Activity, phytotoxicity rating SETVI ([3]; Rate 250 g ai/ha) | Post-emerge Herbicidal Activity, phytotoxicity rating ECHCG ([4]; Rate 63 g ai/ha) | Post-emerge Herbicidal Activity, phytotoxicity rating ECHCG ([4]; Rate 250 g ai/ha) | Post-emerge Herbicidal Activity, phytotoxicity rating IPOHE ([5]; Rate 250 g ai/ha) | Post-emerge Herbicidal Activity, phytotoxicity rating ABUTH ([6]; Rate 63 g ai/ha) | Post-emerge Herbicidal Activity, phytotoxicity rating ABUTH ([6]; Rate 250 g ai/ha) | Post-emerge Herbicidal Activity, phytotoxicity rating AMARE ([8]; Rate 63 g ai/ha) | Post-emerge Herbicidal Activity, phytotoxicity rating AMARE ([8]; Rate 250 g ai/ha) | Post-emerge Herbicidal Activity, phytotoxicity rating DIGSA ([9]; Rate 250 g ai/ha) | Pre-emerge herbicidal activity, phytotoxicity rating CHEAL ([11]; 63 g ai/ha) | Pre-emerge herbicidal activity, phytotoxicity rating CHEAL ([11]; 250 g ai/ha) | Pre-emerge herbicidal activity, phytotoxicity rating ABUTH ([15]; 63 g ai/ha) | Pre-emerge herbicidal activity, phytotoxicity rating ABUTH ([15]; 250 g ai/ha) | Pre-emerge herbicidal activity, phytotoxicity rating DIGSA ([17]; 250 g ai/ha) | Pre-emerge herbicidal activity, phytotoxicity rating AMARE ([19]; 63 g ai/ha) | Pre-emerge herbicidal activity, phytotoxicity rating AMARE ([19]; 250 g ai/ha) | Post-emerge phytotoxicity rating CORN (crop damage) ([22]; Rate 250 g ai/ha) | Post-emerge phytotoxicity rating RICE (crop damage) ([23]; Rate 63 g ai/ha) | Post-emerge phytotoxicity rating RICE (crop damage) ([23]; Rate 250 g ai/ha)
20: Pre-emerge herbicidal activity, phytotoxicity rating SORHA ([16]; 250 g ai/ha)
70: Post-emerge Herbicidal Activity, phytotoxicity rating SORHA ([7]; Rate 63 g ai/ha) | Post-emerge Herbicidal Activity, phytotoxicity rating CASOB ([10]; Rate 250 g ai/ha) | Pre-emerge phytotoxicity rating, crop damage RICE ([21]; 250 g ai/ha)
80: Post-emerge Herbicidal Activity, phytotoxicity rating IPOHE ([5]; Rate 63 g ai/ha) | Post-emerge Herbicidal Activity, phytotoxicity rating SORHA ([7]; Rate 250 g ai/ha)

COc1c(Cl)cc(F)c(-n2c(=O)cc(C(F)(F)F)n(C)c2=O)c1CC(C)(Cl)C(=O)OCC1CCCO1 (centres unmarked) [14-49]
50: Post-emerge Herbicidal Activity, phytotoxicity rating SETVI ([3]; Rate 63 g ai/ha) | phytotoxicity rating SETVI ([12]; 63 g ai/ha) | phytotoxicity rating IPOHE ([14]; 63 g ai/ha) | phytotoxicity rating DIGSA ([17]; 63 g ai/ha) | Post-emerge phytotoxicity rating RICE (crop damage) ([23]; Rate 63 g ai/ha)
80: Post-emerge phytotoxicity rating CORN (crop damage) ([22]; Rate 63 g ai/ha)
95: Post-emerge Herbicidal Activity, phytotoxicity rating SORHA ([7]; Rate 250 g ai/ha) | Post-emerge Herbicidal Activity, phytotoxicity rating DIGSA ([9]; Rate 250 g ai/ha) | Post-emerge Herbicidal Activity, phytotoxicity rating CASOB ([10]; Rate 250 g ai/ha) | phytotoxicity rating CORN ([20]; 250 g ai/ha) | phytotoxicity rating RICE ([21]; 250 g ai/ha) | Post-emerge phytotoxicity rating RICE (crop damage) ([23]; Rate 250 g ai/ha)
10: phytotoxicity rating CORN ([20]; 63 g ai/ha)
100: Post-emerge Herbicidal Activity, phytotoxicity rating AMBEL ([1]; Rate 63 g ai/ha) | Post-emerge Herbicidal Activity, phytotoxicity rating AMBEL ([1]; Rate 250 g ai/ha) | Post-emerge Herbicidal Activity, phytotoxicity rating CHEAL ([2]; Rate 63 g ai/ha) | Post-emerge Herbicidal Activity, phytotoxicity rating CHEAL ([2]; Rate 250 g ai/ha) | Post-emerge Herbicidal Activity, phytotoxicity rating SETVI ([3]; Rate 250 g ai/ha) | Post-emerge Herbicidal Activity, phytotoxicity rating ECHCG ([4]; Rate 63 g ai/ha) | Post-emerge Herbicidal Activity, phytotoxicity rating ECHCG ([4]; Rate 250 g ai/ha) | Post-emerge Herbicidal Activity, phytotoxicity rating IPOHE ([5]; Rate 63 g ai/ha) | Post-emerge Herbicidal Activity, phytotoxicity rating IPOHE ([5]; Rate 250 g ai/ha) | Post-emerge Herbicidal Activity, phytotoxicity rating ABUTH ([6]; Rate 63 g ai/ha) | Post-emerge Herbicidal Activity, phytotoxicity rating ABUTH ([6]; Rate 250 g ai/ha) | Post-emerge Herbicidal Activity, phytotoxicity rating AMARE ([8]; Rate 63 g ai/ha) | Post-emerge Herbicidal Activity, phytotoxicity rating AMARE ([8]; Rate 250 g ai/ha) | phytotoxicity rating CHEAL ([11]; 63 g ai/ha) | phytotoxicity rating CHEAL ([11]; 250 g ai/ha) | phytotoxicity rating SETVI ([12]; 250 g ai/ha) | phytotoxicity rating ECHCG ([13]; 250 g ai/ha) | phytotoxicity rating ABUTH ([15]; 63 g ai/ha) | phytotoxicity rating ABUTH ([15]; 250 g ai/ha) | phytotoxicity rating DIGSA ([17]; 250 g ai/ha) | phytotoxicity rating AMARE ([19]; 63 g ai/ha) | phytotoxicity rating AMARE ([19]; 250 g ai/ha) | Post-emerge phytotoxicity rating CORN (crop damage) ([22]; Rate 250 g ai/ha)
0: phytotoxicity rating ECHCG ([13]; 63 g ai/ha) | phytotoxicity rating CASOB ([18]; 63 g ai/ha)
20: phytotoxicity rating SORHA ([16]; 63 g ai/ha)
90: phytotoxicity rating IPOHE ([14]; 250 g ai/ha) | phytotoxicity rating SORHA ([16]; 250 g ai/ha)
70: Post-emerge Herbicidal Activity, phytotoxicity rating SORHA ([7]; Rate 63 g ai/ha) | Post-emerge Herbicidal Activity, phytotoxicity rating DIGSA ([9]; Rate 63 g ai/ha) | Post-emerge Herbicidal Activity, phytotoxicity rating CASOB ([10]; Rate 63 g ai/ha) | phytotoxicity rating CASOB ([18]; 250 g ai/ha)
40: phytotoxicity rating RICE ([21]; 63 g ai/ha)
